This is an account of results in ChEMBL document CHEMBL1201862, “PubChem BioAssay data set” (2004).

The source made the active and inactive calls.

Experiment [1] concerns the target Serine/threonine-protein phosphatase (Homo sapiens, UniProt Q9BPW0). The experiment can be described thus: inhibition of protein phosphatase 5 activity – biochemical, fluorescence, dose response (AID 2395).
Experiment [2] has as its target Serine/threonine-protein phosphatase PP1-alpha catalytic subunit (Homo sapiens, UniProt P62136). The experiment can be described thus: inhibition of protein phosphatase 1 activity – biochemical, fluorescence, dose response (AID 2394).
A short description of experiment [3]: Luminescence-based dose response cell-based high throughput screening assay for cytotoxic compounds using the IEC-6 intestinal epithelial cell line. [Related pubchem assays: 1858 (Summary AID.), 1825 (Counterscreen.), 1907 (Confirmation screen.)]. Type of experiment: functional. Background: A counterscreen serves to expose hits that act by an unwanted route or on another target.

A short description of experiment [4]: NIH3T3 cell viability loss – ATP luminescence, mouse fibroblasts, counter-screen, dose response (AID 2010).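 Also: cells exposed to compound for about 90 hours before reading.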 It counts as functional, cell-based.
Experiment [5] is described as follows: cells.
Experiment [6] in a line: Trypanosoma cruzi growth suppression in host cells – NIH3T3 host cells, beta-gal luminescence, confirmation (AID 2044).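 Also: intracellular parasites grown in NIH/3T3 mouse fibroblasts as host cells; luminescent beta-galactosidase reporter signal from transgenic T. cruzi replicating inside host cells; inhibitors lower the luminescence signal.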 Type of experiment: functional, cell-based.
The nature of experiment [7]: viability of uninfected HEp-2 cells – cell-based, HTS, cytotoxicity control for RSV inhibitor project, dose response (AID 2410). Type of experiment: functional. The conditions noted are these: human respiratory syncytial virus.
Experiment [8] in a line: cells. This is another data set of the same source.
The target in experiment [9] is Dual specificity tyrosine-phosphorylation-regulated kinase 1A (Rattus norvegicus, UniProt Q63470). It counts as biochemical, Homo sapiens.
In experiment [10] the target is T1, Insulin-degrading enzyme (Homo sapiens, UniProt P14735).
T1 sequence (P14735 whole entry): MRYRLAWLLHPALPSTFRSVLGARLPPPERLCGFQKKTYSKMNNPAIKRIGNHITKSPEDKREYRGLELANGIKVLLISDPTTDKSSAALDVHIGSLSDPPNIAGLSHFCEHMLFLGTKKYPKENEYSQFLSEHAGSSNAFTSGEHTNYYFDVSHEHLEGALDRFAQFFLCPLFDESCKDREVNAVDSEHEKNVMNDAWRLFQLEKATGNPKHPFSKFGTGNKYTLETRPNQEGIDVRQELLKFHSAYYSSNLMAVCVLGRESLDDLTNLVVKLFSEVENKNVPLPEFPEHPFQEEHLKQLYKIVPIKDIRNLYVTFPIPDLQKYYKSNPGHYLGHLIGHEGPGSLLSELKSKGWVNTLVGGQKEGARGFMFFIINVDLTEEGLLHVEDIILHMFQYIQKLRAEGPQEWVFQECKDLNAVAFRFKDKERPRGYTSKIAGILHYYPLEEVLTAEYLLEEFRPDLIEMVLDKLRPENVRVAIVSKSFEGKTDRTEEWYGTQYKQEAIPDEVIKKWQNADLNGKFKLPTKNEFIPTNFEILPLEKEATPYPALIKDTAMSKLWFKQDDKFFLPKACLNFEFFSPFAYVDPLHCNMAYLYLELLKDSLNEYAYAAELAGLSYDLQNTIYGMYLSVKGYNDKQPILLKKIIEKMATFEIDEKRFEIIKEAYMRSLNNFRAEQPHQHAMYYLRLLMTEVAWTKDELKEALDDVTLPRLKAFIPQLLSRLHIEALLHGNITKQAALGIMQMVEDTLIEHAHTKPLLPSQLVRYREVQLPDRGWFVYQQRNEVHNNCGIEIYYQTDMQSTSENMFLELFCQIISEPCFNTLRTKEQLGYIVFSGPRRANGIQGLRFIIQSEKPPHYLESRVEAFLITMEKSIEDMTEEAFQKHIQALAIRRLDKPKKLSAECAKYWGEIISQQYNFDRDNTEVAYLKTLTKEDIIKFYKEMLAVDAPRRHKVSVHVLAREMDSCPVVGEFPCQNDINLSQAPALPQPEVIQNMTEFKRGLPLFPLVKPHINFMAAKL
The experiment can be described thus: Dose Response: Fluorescence polarization-based cell-based high throughput dose response assay for inhibitors of insulin-degrading enzyme (IDE). [Related pubchem assays: 434962 (Primary screen (IDE inhibitors in singlicate)), 449730 (Counterscreen (Cytotoxicity in triplicate)), 435028 (Confirmation (IDE inhibitors in triplicate)), 434984 (Summary …. It counts as functional.

Experiment [11] is described as follows: Counterscreen for IDE inhibitors: Luminescence-based cell-based high throughput dose response assay to identify compounds that are cytotoxic to HEK cells. [Related pubchem assays: 434962 (Primary screen (IDE inhibitors in singlicate)), 449730 (Counterscreen (Cytotoxicity in triplicate)), 435028 (Confirmation (IDE inhibitors in triplicate)) …. Type of experiment: functional. The conditions noted are these: HEK293.

Experiment [12] addresses Galanin receptor type 2 (Homo sapiens, UniProt O43603). The experiment can be described thus: Dose Response cell-based high-throughput screening assay to identify agonists of galanin receptor 2 (GALR2). [Related pubchem assays: 864 ]. Type of experiment: functional.
For experiment [13], the system named is BJ. The experiment can be described thus: cells. Type of experiment: functional, cell-based. Conditions: Homo sapiens.
Experiment [14] is described as follows: DRD fibroblast viability loss – cell-based, non-viral oncogenic, luminescence, dose response (AID 1934). The conditions noted are these: Homo sapiens. It counts as functional.
The subject of experiment [15] is BJ. The experiment can be described thus: BJ-TERT fibroblast viability loss – cell-based, RAS-independent, luminescence, dose response (AID 1933). Type of experiment: functional. Conditions: Homo sapiens.
Experiment [16] has as its system BJ. Kind of experiment: BJ-TERT-LT-ST fibroblast viability loss – cell-based, RAS-independent, luminescence, dose response (AID 1935).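 Also: BJ fibroblasts immortalized with TERT plus LT and ST oncogenes.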 Type of experiment: functional. Conditions: Homo sapiens.
The target in experiment [17] is T2, SUMO-activating enzyme (Homo sapiens, UniProt Q9UBT2). The experiment can be described thus: blockers of SAE1/SAE2–UBC9 SUMO transfer – biochemical, HTRF, uHTS, primary screen (AID 2006). It counts as protein-complex assay. On the technique in general: Time-resolved FRET reads energy transfer from a long-lived donor to a nearby acceptor.
For experiment [18], the target named is T2, SUMO-activating enzyme. Kind of experiment: blockers of UBC9-mediated SUMO conjugation – biochemical, AlphaScreen, SUMOylation inhibitor project, confirmation (AID 2018). It counts as functional. A general note: In Alpha technology, singlet oxygen from a donor bead excites a nearby acceptor bead.

T2 sequence (Q9UBE0 whole entry): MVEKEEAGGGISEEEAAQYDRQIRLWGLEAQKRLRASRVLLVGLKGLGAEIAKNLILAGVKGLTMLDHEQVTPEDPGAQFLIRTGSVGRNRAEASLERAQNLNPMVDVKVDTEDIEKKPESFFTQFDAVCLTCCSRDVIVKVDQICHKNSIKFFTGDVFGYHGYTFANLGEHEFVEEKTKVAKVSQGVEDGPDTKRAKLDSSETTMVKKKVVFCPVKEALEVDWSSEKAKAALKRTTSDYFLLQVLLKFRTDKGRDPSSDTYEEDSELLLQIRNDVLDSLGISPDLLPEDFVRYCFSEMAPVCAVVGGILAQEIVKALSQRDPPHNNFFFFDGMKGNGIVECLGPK
T2 sequence (Q9UBT2 whole entry): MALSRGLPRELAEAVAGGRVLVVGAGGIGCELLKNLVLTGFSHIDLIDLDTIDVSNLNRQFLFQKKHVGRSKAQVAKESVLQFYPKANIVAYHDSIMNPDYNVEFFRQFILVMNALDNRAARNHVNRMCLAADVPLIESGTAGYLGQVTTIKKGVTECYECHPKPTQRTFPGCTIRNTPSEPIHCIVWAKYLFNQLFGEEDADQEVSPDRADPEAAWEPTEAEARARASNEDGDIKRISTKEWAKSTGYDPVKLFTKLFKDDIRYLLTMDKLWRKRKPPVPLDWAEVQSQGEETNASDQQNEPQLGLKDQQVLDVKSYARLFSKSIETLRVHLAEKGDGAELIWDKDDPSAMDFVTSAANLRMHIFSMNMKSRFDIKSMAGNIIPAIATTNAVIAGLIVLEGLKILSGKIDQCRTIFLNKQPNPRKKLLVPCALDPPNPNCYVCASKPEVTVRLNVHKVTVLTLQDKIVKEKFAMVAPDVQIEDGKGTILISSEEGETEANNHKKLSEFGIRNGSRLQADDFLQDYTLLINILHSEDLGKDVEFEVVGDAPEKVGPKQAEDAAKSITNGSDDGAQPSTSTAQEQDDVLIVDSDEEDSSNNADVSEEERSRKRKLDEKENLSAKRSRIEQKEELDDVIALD
Chain of Serine/threonine-protein phosphatase PP1-alpha catalytic subunit (P62136 whole entry): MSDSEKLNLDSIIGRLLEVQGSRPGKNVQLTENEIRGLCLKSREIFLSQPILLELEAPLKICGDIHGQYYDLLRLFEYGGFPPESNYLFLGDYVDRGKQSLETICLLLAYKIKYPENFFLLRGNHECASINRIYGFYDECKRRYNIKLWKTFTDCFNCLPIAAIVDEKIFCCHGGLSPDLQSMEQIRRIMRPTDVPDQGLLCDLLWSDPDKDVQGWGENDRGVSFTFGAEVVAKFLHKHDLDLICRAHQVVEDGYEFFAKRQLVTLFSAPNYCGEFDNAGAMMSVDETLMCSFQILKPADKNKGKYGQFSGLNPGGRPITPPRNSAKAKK
Chain of Serine/threonine-protein phosphatase (Q9BPW0 whole entry): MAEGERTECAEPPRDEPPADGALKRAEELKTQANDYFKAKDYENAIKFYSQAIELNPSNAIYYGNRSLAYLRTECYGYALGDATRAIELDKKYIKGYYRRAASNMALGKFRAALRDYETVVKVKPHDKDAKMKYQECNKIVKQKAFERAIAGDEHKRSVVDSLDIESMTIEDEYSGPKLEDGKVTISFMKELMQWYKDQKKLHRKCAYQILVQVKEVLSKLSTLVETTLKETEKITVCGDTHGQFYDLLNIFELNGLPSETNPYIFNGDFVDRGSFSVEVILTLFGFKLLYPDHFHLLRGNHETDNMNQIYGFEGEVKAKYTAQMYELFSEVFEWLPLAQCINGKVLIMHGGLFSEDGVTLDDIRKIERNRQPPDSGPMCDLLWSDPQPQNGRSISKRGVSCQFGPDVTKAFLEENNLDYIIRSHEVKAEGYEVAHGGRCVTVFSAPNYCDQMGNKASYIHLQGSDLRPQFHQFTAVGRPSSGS
Chain of Galanin receptor type 2 (O43603 whole entry): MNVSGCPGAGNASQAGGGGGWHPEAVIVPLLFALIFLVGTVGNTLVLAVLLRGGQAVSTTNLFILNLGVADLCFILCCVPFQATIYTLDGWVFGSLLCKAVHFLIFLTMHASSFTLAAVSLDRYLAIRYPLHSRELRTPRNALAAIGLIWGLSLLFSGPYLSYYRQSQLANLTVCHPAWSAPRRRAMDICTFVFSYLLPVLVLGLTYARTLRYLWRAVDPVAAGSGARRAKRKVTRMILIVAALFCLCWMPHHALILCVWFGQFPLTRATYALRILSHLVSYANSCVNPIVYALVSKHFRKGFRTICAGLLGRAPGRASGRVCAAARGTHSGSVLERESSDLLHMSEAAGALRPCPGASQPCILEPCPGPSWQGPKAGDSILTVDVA

For orientation: IC50 means the concentration needed to halve the response being measured. For the compound `Cc1nnc(NC(=O)C2C3C=CC(O3)C2C(=O)O)s1` (stereo not drawn), the half-inhibitory concentration (IC50) in experiment [1] and in experiment [2] was > 67 µM (not active) each time.

Turning to `CCN1CCCC1CNC(=O)C1CCN(Cc2nc(-c3cccc(Br)c3)oc2C)CC1` (stereo not drawn), the IC50 in [3] is 6.51 µM (active).

Broadly, the EC50 is the concentration at which the effect is half-maximal. For `CCN(CC(=O)NCc1cccs1)C(=O)c1ccc([N+](=O)[O-])o1`, the 50% effective concentration (EC50) is > 30 µM (not active) in experiment [4], 0.047 µM (active) in [5] and < 0.1 µM (active) in [6].

For orientation: CC50 means the concentration at which the toxic effect on the cells reaches its halfway point. For the compound `c1nc2cc(Cc3ccc4[nH]cnc4c3)ccc2[nH]1`, the CC50 in experiment [7] is > 50 µM (active). Further, in [8], the IC50 is 44.5 µM (active).

Usually AC50 stands for the concentration at which the activity in the assay is half-maximal. Take `COc1ccc2c(Cl)c(C(=O)N/N=C3\CCCC(=O)C3)sc2c1`: the half-maximal activity concentration (AC50) in experiment [9] is 1.98 µM (active). Further, the figures for the IC50 in experiment [10] and in experiment [11] were > 55.9 µM (not active) and 26.2 µM (not active), respectively.

For `Cc1ccc2nsnc2c1NC(=O)c1ccc(-c2cc(Cl)ccc2Cl)o1`, the half-maximal effective concentration (EC50) in experiment [12] was > 55.7 µM (not active); in [13], 14.4 µM (inconclusive); in experiment [14] it was 5.89 µM (active); in experiment [15], 3.86 µM (inconclusive); in experiment [16] it was 6.11 µM (inconclusive). The values for the half-inhibitory concentration (IC50) in experiment [17] and in experiment [18] were 4.64 µM (active) and 18 µM (active), respectively.
